Results reported in paper PMC12670426 (Journal of Medicinal Chemistry, 2025).

Tests used:
[1] = Plasma protein binding assay (rapid equilibrium dialysis), mouse plasma; type: in vitro ADME; conditions: fraction bound, read-out: plasma protein binding Fb mouse (converted)
Method: (§1) Test compound (10 μM) was incubated at 37 °C for 4 h with mouse, rat, or human plasma (Biowest) in the donor well of a rapid equilibrium dialysis plate (Thermo Fisher Scientific). PBS was placed in the acceptor well. To stop the assay, samples were collected from both wells, and an equal volume of plasma was added to the PBS sample, and vice versa. Proteins were then precipitated by adding three volumes of ice-cold methanol. Samples were mixed gently, kept at −20 °C for 30 min, and then stored at 4 °C overnight. The next day, the samples were centrifuged, and the supernatants were diluted with four volumes of 30% methanol in water. The samples were then analyzed using the Echo-MS system (SCIEX) with MRM transition monitoring, except for compound 3af, which was analyzed by LC–MS/MS as described in the plasma stability assay.

Cytotoxicity assay, THP1 = type: cell-based; conditions: human, THP1 cells, viability dye, flow cytometry
Method: (§2) To evaluate in vitro cytotoxicity and support its potential application in inflammatory and fibrotic disease models, the following panel of cell lines, representing the relevant biological systems, was used: HEK293, HepG2, THP1, Jurkat E6.1, and LX2. HEK293, HepG2, and Jurkat E6.1 cells were seeded at 400,000 cells/mL, THP1 cells at 500,000 cells/mL, and LX2 cells at 200,000 cells/mL in 96-well plates (cell culture-treated, VWR) in 100 μL/well. Cells were treated with the tested compounds in a serial dilution (300, 100, 33.3, 11.1, and 3.7 μM) for 24 h. Untreated cells served as negative controls to establish the baseline viability threshold. Cell viability was assessed using a viability dye (Zombie Violet Fixable Viability Kit, BioLegend) following the manufacturer’s instructions and analyzed by flow cytometry (see below).
(§3) Cells or beads from screening assays prepared for flow cytometry were analyzed by the CytoFlex S instrument (Beckman Coulter). Data acquisition was performed using CytExpert software (v2.5, Beckman Coulter). Debris was excluded by forward and side scatter gating, followed by doublet exclusion. Data were analyzed using FlowJo software (v10, BD Biosciences).

[2] = Cytotoxicity assay, HepG2; type: cell-based; conditions: human, HepG2 cells, viability dye, flow cytometry
Method: as §2, §3

[3] = Microsomal stability assay, rat liver microsomes; type: in vitro ADME; conditions: pooled liver microsomes, pH 7.4, rat liver microsomes 0.5 mg/mL, NADPH
Method: Microsomal stability was determined using 0.5 mg/mL of pooled human, mouse, or rat liver microsomes (Thermo Fisher Scientific) in 90 mM TRIS-Cl buffer (pH 7.4) containing 2 mM NADPH and 2 mM MgCl2. Test compounds (10 μM) were added, and the resulting mixture was incubated at 37 °C for 10, 60, 120, and 180 min. The reactions were terminated by the addition of four volumes of ice-cold methanol, followed by vigorous mixing. The samples were left at −20 °C for 30 min and then stored at 4 °C overnight. The next day, samples were centrifuged, and supernatants were diluted with four volumes of 30% methanol in water. Zero time points were prepared by adding ice-cold methanol to the mixture of compounds and cofactors prior to the addition of microsomes. The samples were then analyzed using the Echo-MS system (SCIEX) with MRM transition monitoring, except for compound 3af, which was analyzed by LC–MS/MS as described in the plasma stability assay.

[4] = Cytotoxicity assay, Jurkat E6.1; type: cell-based; conditions: human, Jurkat E6.1 cells, viability dye, flow cytometry
Method: as §2, §3

[5] = Plasma stability assay, rat plasma; type: in vitro ADME; conditions: 37 °C
Method: (§4) Test compounds (10 μM) were incubated with mouse, rat, or human pooled plasma from 50 donors (Biowest) at 37 °C for 20, 60, and 120 min. Reactions were terminated by adding four volumes of ice-cold methanol, followed by vigorous mixing. Samples were kept at −20 °C for 30 min and then stored at 4 °C overnight. The next day, samples were centrifuged, and supernatants were diluted with four volumes of 30% methanol in water. Zero time points were prepared by adding ice-cold methanol to the compound prior to the addition of plasma. Samples were then analyzed on an Echo MS system (SCIEX) using multiple reaction monitoring (MRM). The only exception was compound 3af, which was analyzed by LC–MS/MS (SCIEX 6500 triple quadrupole) due to its weak ionization in Echo-MS.

[6] = Plasma stability assay, mouse plasma; type: in vitro ADME; conditions: 37 °C
Method: as §4

[7] = Plasma protein binding, summary across species; type: in vitro ADME; conditions: summary across human, mouse and rat plasma
Method: as §1

[8] = system: LPS-stimulated macrophage-like THP1 cells (TNFα secretion); experiment: Anti-inflammatory potential: TNFα secretion in LPS-stimulated PMA-differentiated THP1 cells; type: cell-based, human; conditions: (+)PMA THP1, 1 μg/mL LPS, 24 h, up to 300 μM
Method: Cells were differentiated overnight into macrophage-like phenotypes by treatment with 10 ng/mL PMA and subsequently stimulated with 1 μg/mL lipopolysaccharide (LPS; Invitrogen, Thermo Fisher Scientific) to induce a proinflammatory response. […] After 24 h of LPS and compound exposure, cell culture supernatants were collected and analyzed for TNFα levels using a bead-based multiplex immunoassay (ProcartaPlex Human Basic Kit and TNFα Human ProcartaPlex Simplex Kit, both Invitrogen, Thermo Fisher Scientific). Flow cytometry readout was used as previously described. TNFα concentrations were calculated using a standard curve generated in GraphPad Prism 10 (GraphPad Software, San Diego, CA). Cells or beads from screening assays prepared for flow cytometry were analyzed by the CytoFlex S instrument (Beckman Coulter). Data acquisition was performed using CytExpert software (v2.5, Beckman Coulter). Debris was excluded by forward and side scatter gating, followed by doublet exclusion. Data were analyzed using FlowJo software (v10, BD Biosciences).

[9] = Kinetic solubility assay in PBS; type: physicochemical; conditions: aqueous buffer, kinetic from dmso stock; PBS at pH 7.4, 100 μM final, 2 h room temperature
Method: The solutions were incubated at room temperature for 2 h and filtered by centrifugation. Filtrates were diluted 100-fold with 50% acetonitrile in water and then analyzed on the Echo-MS system (SCIEX) using MRM transition monitoring, except for compound 3af, which was analyzed by LC–MS/MS as described in the plasma stability assay. Compound concentrations were quantified against calibration curves prepared in the identical matrix as the samples.

[10] = Cytotoxicity assay, HEK293; type: cell-based; conditions: human, HEK293 cells, viability dye, flow cytometry
Method: as §2, §3

fraction unbound at 4 h, 10 μM [1]: 0.57
microsomal CLint at 10 μM [3]: < 2 µL/min/mg
remaining at 2 h, 10 μM [5]: 87 ± 6%
remaining at 2 h, 10 μM [6]: 100 ± 3%
fraction unbound at 4 h, 10 μM [7]: 0.1 to 0.78
solubility kinetic at 2 h [9]: > 100 µM
Compound: CC(=O)N(c1cc(C(=O)O)cc2[nH]ccc12)[C@@H]1O[C@H](CO)[C@@H](S[C@@H]2O[C@H](CO)[C@H](O)[C@H](n3cc(-c4cccc(F)c4)nn3)[C@H]2O)[C@H](O)[C@H]1O [Compound 11, N-[4-S-(3-Deoxy-3-(4-(3-fluorophenyl)-1H-1,2,3-triazol-1-yl)-β-D-galactopyranosyl)-4-thio-β-D-glucopyranosyl]-N-(6-carboxy-1H-indol-4-yl)acetamide]
CC50 at 24 h (Cytotoxicity assay, THP1): > 300 µM
CC50 at 24 h [2]: > 300 µM
CC50 at 24 h [4]: > 300 µM
LPS-induced TNFα secretion [8]: no suppression
CC50 at 24 h [10]: > 300 µM
